Results reported in patent US5124083A, “3-substituted and 3,3-disubstituted 4-oxoretinoic acids and their esters” (Southern Research Institute, priority 1990, dated 1992).
Where two headings read alike, the source gives them in different places.

Experiments:
[1] = test system: tracheas obtained from vitamin A-deficient hamsters; settings: value taken from Newton et al.; read-out: ED50, hamster trachea organ culture assay; cited from earlier work
mammary carcinogenesis = settings: rats; Moon et al.; cited from earlier work
[2] = test system: pre-neoplastic and malignant epithelial lesions; settings: literature; cited from earlier work
certain neoplastic cells = settings: literature; cited from earlier work
[3] = test system: F9 Embryonal Carcinoma Cells; assay: Induction of differentiation of F9 embryonal carcinoma cells (plasminogen activator release); format: cell-based; settings: Mus musculus, 96 h; molar concentration causing 50% induction of differentiation, by release of plasminogen activator; 4 days; read-out: Differentiation of F9 Embryonal Carcinoma Cells ED50
Procedure: Induction of differentiation of cancer cells is a potential mode of cancer chemoprevention. […] Elevated release of plasminogen activator by F9 cells in the presence of retinoids is a marker for differentiation. Induction of differentiation of F9 cells by several of the retinoids of this invention was evaluated, and the results are summarized in Table I (Example 24) as values of ED50. All of the tested 4-oxoretionoic acid analogues induce differentiation at low concentrations (ED50 =[…] -10^-10 molar) and, therefore, are very effective inducers of differentiation of mouse F9 embryonal carcinoma cells. […] Under the conditions of this assay, ester derivatives might be hydrolyzed partially to the carboxylic acids.
Assay for Induction of Differentiation of Cancer Cells to Normal Cells
Evaluation of the differentiation potential of 4-oxoretinoids was carried out with an embryonal carcinoma cell line, F9. Elevation of plasminogen activator release by F9 cells in the presence of retinoids is a marker for inducing differentiation into parietal endoderm (Strickland and Mahdavi, loc. cit.; Strickland and Sawey, loc. cit.). F9 cells were grown at a density of 1×10^5 cells/mL in the presence or absence of […], 10^-8, 10^-9, 10^-10, and 10^-11 or molar retinoids for 4 days. Aliquots (20 μL) of the harvest fluid were mixed with 0.13 μM plasminogen, 0.3 mM H-D-Val-Leu-Lys-p-nitroaniline (a synthetic substrate of plasmin), 0.1% Tween 80, and 25 μg of fibrinogen fragments in a final volume of 0.2 mL of Tris-HCl, pH 7.5. After incubation for 4 hours at 25° C., the generation of p-nitroaniline was measured by absorbance at 405 nm. The average absorbencies from duplicate experiments were plotted (semilog plots) versus concentration (molarity). The ED50 values were determined by finding the midpoint between the maximal and minimal absorbance values.
Induction of Differentiation of Cancer Cells
^a ED50 is the molar concentration of the retinoid that causes
50% induction of differentiation of the carcinoma cells as measured by th
release of plasminogen activator.

[4] = test system: tracheas obtained from vitamin A-deficient hamsters; assay: Hamster trachea organ culture assay (reversal of squamous metaplasia and keratinization); format: cell-based; settings: for EC50: Mesocricetus auratus, reversal of keratinization, vitamin A-deficient hamster trachea in culture, read-out: ED50, hamster trachea organ culture assay; for Activity in hamster-trachea assay compared with the retinamides of Table II: compared with retinamides in lower part of Table II
Procedure: Some of these 4-oxoretinoic acid analogues were evaluated in the hamster-trachea organ-culture assay described in Clamon et al., Nature, Vol. 250, pages 64-66, 1974; Sporn et al., Nature, Vol. 263, pages 110-113, 1976; and Newton et al., Cancer Res., Vol. 40, pages 3413-3425, 1980. This bioassay is specific for retinoids and assesses the capacity of retinoids to reverse keratinization in vitamin A-deficient hamster trachea in culture. Therefore, it is a measure of the capacity of a retinoid to control differentiation of epithelial cells, and "it is believed to have significant predictive value for the potential use of a new retinoid for prevention of epithelial cancer" (Newton et al., Cancer Res., Vol. 40, pages 3413-3425, 1980). (See Example 25). Also, data obtained by Newton et al., (Cancer Res., Vol. 40, pages 3413-3425, 1980) in assays of six all-trans or 13-cis retinamides are included in Table II for comparison.
Hamster Trachea Organ Culture Assay
4-Oxoretinoids were evaluated for their capacity to reverse squamous metaplasia and keratinization in organ cultures of tracheas obtained from vitamin A-deficient hamsters. The methods and procedures were those described by Sporn and co-workers (Clamon et al. and Newton et al., loc. cit.).

ornithine decarboxylase = assay: Ornithine decarboxylase assay (reduction of TPA-induced ODC activity in mouse skin); format: in vivo; settings: for Ornithine Decarboxylase Activity, Average % of Control Group: TPA-induced ODC, mouse skin, nanomoles of carbon dioxide per milligram of protein per half hour; for ODC activity as % of the ODC activity in the control mice, summary range: TPA-induced, summary of Table III in text
Description: A bioassay in vivo for activity in the prevention of carcinogen-induced cancer is based on the reduction by a retinoid of the amount of ornithine decarboxylase (ODC) induced in mouse skin by the tumor promoter 12-O-tetradecanoylphorbol 13-acetate (TPA). Verma et al. (Cancer Research, Vol. 38, pages 793-801, 1978), reported that "application of the potent tumor-promoting agent 12-O-tetradecanoylphorbol 13-acetate (TPA) to mouse skin leads to a rapid and transient induction of epidermal ornithine decarboxylase activity". They state, further, that "inhibition of this enzyme activity by retinoids may be a simple and rapid in vivo test for assessing the potential prophylactic activity of new synthetic retinoids". All of the tested 4-oxoretinoid analogues reduced TPA-induced ODC activity. The compounds of Examples 2-4, 8, 11, 17, 18, and 20-23 reduced ODC activity to 22-47% of the ODC activity in the control mice and are, therefore, very active in this assay for cancer chemopreventive activity.
Ornithine Decarboxylase Assay
Assays for the reduction by 4-oxoretinoids of ornithine decarboxylase activity induced by 12-O-tetradecanoylphorbol 13-acetate (TPA) were performed by the procedure of Verma et al., Cancer Research, Vol. 38, pages 793-801 (1978).

skin papillomas = assay: Mouse antipapilloma assay (DMBA-TPA skin papillomas); format: in vivo; set-up: Average Number of Skin Papillomas/Mouse as % of No. of Papillomas/Mouse in the DMBA-TPA Control Group of Mice: concentration or dose not given beside the values; settings: for Average Number of Skin Papillomas/Mouse as % of No. of Papillomas/Mouse in the DMBA-TPA Control Group of Mice: DMBA-initiated, TPA-promoted mouse skin; for Reduction of papilloma formation, summary range: range over the six most active retinoids; for Papilloma formation as % of papilloma formation in untreated control mice, summary range: summary of Table IV
Description: Application of the carcinogen DMBA to mouse skin followed by application of the tumor promoter TPA causes the formation of papillomas. Certain retinoids applied to the same area of mouse skin reduce or prevent papilloma formation (e.g. H. Mayer, W. Bollag, R. Hanni, and R. Ruegg, Experientia, Vol 34, pages 1105-1119, 1978; R. K. Boutwell and A. K. Verma, Pure and Applied Chemistry, Vol. 51, pages 857-866, 1979). The antipapilloma assay is a direct test of the capability of a retinoid to prevent tumor formation in vivo. It has been used to select retinoids for clinical development. The tested retinoids reduced papilloma formation to 27-83% of papilloma formation in untreated control mice. […] The number of papillomas in mice treated with either of these six retinoids was 27-40% of the number of papillomas on untreated mice; or, differently expressed, papilloma formation was reduced by 60-73%.
In this assay, tumors are initiated in mice by applying the carcinogen DMBA to the skin of mice and subsequently applying the promoter TPA. The method is that of Verma et al., Cancer Research, Vol. 39, pages 419-425, 1979.

[5] = Roberts and Frolik, Roberts et al.; cited from earlier work

EC50 [4] [nM] | SMILES | EC50 [1] [nM] | EC50 [3] [nM] | Ornithine Decarboxylase Activity, Average % of Control Group (ornithine decarboxylase) | other results
– | CC1=C(/C=C/C(C)=C/C=C/C(C)=C\C(=O)NCCO)C(C)(C)CCC1 [13-Cis-N-(2-hydroxyethyl)-retinamide] | 0.3 | – | – | –
– | CC1=C(/C=C/C(C)=C/C=C/C(C)=C\C(=O)Nc2ccc(O)cc2)C(C)(C)CCC1 [13-Cis-N-(4-hydroxyphenyl)-retinamide] | > 1 | – | – | Suppression of mammary carcinogenesis (mammary carcinogenesis): suppress mammary carcinogenesis in rats
– | CCNC(=O)\C=C(C)/C=C/C=C(C)/C=C/C1=C(C)CCCC1(C)C [13-Cis-N-ethylretinamide] | 0.3 | – | – | –
– | CC1=C(/C=C/C(C)=C/C=C/C(C)=C\C(=O)O)C(C)(C)CCC1 [13-cis-retinoic acid] | – | – | – | Prophylactic effect on development of pre-neoplastic and malignant epithelial lesions [2]: exert a prophylactic effect; Induction of differentiation of certain neoplastic cells to terminally differentiated cells (certain neoplastic cells): highly active inducers of differentiation
– | CC1=C(/C=C/C(C)=C/C=C/C(C)=C/C(=O)NCCO)C(C)(C)CCC1 [All-trans-N-(2-hydroxyethyl)-retinamide] | 0.1 | – | – | –
– | CC1=C(/C=C/C(C)=C/C=C/C(C)=C/C(=O)Nc2ccc(O)cc2)C(C)(C)CCC1 [All-trans-N-(4-hydroxyphenyl)-retinamide] | 0.3 | – | – | Suppression of mammary carcinogenesis (mammary carcinogenesis): suppress mammary carcinogenesis in rats
– | CCNC(=O)/C=C(C)/C=C/C=C(C)/C=C/C1=C(C)CCCC1(C)C [All-trans-N-ethylretinamide] | 1 | – | – | –
4 | COC(=O)/C=C(C)/C=C/C=C(C)/C=C/C1=C(C)C(=O)C(C)CC1(C)C (centres unmarked) [Example 2, Methyl 3-Methyl-4-oxoretinoate] | – | 2 | 33 % of Control Group | Average Number of Skin Papillomas/Mouse as % of No. of Papillomas/Mouse in the DMBA-TPA Control Group of Mice (skin papillomas): 27%; Reduction of papilloma formation, summary range (skin papillomas): 60-73%; Papilloma formation as % of papilloma formation in untreated control mice, summary range (skin papillomas): 27-40%
11 | COC(=O)/C=C(C)/C=C/C=C(C)/C=C/C1=C(C)C(=O)C(Cc2ccccc2)CC1(C)C (centres unmarked) [Example 9, Methyl 4-Oxo-3-(phenylmethyl)retinoate] | – | – | 77 % of Control Group | –
0.3 | COC(=O)/C=C(C)/C=C/C=C(C)/C=C/C1=C(C)C(=O)C(C)(C)CC1(C)C [Example 11, Methyl 3,3-Dimethyl-4-oxoretinoate] | – | 0.9 | 22 % of Control Group | Activity in hamster-trachea assay compared with the retinamides of Table II [4]: comparable; ODC activity as % of the ODC activity in the control mice, summary range (ornithine decarboxylase): 22-47 % of the ODC activity in the control mice; Average Number of Skin Papillomas/Mouse as % of No. of Papillomas/Mouse in the DMBA-TPA Control Group of Mice (skin papillomas): 27%; Reduction of papilloma formation, summary range (skin papillomas): 60-73%; Papilloma formation as % of papilloma formation in untreated control mice, summary range (skin papillomas): 27-40%
2 | CC1=C(/C=C/C(C)=C/C=C/C(C)=C/C(=O)O)C(C)(C)CC(C)C1=O (centres unmarked) [Example 17, 3-Methyl-4-oxoretinoic Acid] | – | 0.9 | 33 % of Control Group | ODC activity as % of the ODC activity in the control mice, summary range (ornithine decarboxylase): 22-47 % of the ODC activity in the control mice; Average Number of Skin Papillomas/Mouse as % of No. of Papillomas/Mouse in the DMBA-TPA Control Group of Mice (skin papillomas): 32%; Reduction of papilloma formation, summary range (skin papillomas): 60-73%; Papilloma formation as % of papilloma formation in untreated control mice, summary range (skin papillomas): 27-40%
0.2 | C#CCC1CC(C)(C)C(/C=C/C(C)=C/C=C/C(C)=C/C(=O)O)=C(C)C1=O (centres unmarked) [Example 20] | – | 0.6 | 47 % of Control Group | Activity in hamster-trachea assay compared with the retinamides of Table II [4]: comparable; Average Number of Skin Papillomas/Mouse as % of No. of Papillomas/Mouse in the DMBA-TPA Control Group of Mice (skin papillomas): 64%
11 | CC1=C(/C=C/C(C)=C/C=C/C(C)=C/C(=O)O)C(C)(C)CC(Cc2ccccc2)C1=O (centres unmarked) [Example 21] | – | 0.8 | 42 % of Control Group | –
– | CC1=C(/C=C/C(C)=C/C=C/C(C)=C/C(=O)O)C(C)(C)CCC1=O [all-trans-4-oxoretinoic acid] | – | – | – | Metabolite identity [5]: one of the metabolites of all-trans-retinoic acid
– | CC1=C(/C=C/C(C)=C/C=C/C(C)=C/C(=O)O)C(C)(C)CCC1 [all-trans-retinoic acid] | – | – | – | Prophylactic effect on development of pre-neoplastic and malignant epithelial lesions [2]: exert a prophylactic effect; Induction of differentiation of certain neoplastic cells to terminally differentiated cells (certain neoplastic cells): highly active inducers of differentiation
